In patent US12385839B2, “Use of protein in predicting drug properties” (priority 2021, dated 2025):
Like-named read-outs stand apart in the source and are kept apart here.

Experiments:
[1] = cited from earlier work; for LD50: modelling table; for Toxicity: toxicity grade by LD50, trailing figure = number of pesticides in group
[2] = target: T1, human serum albumin (HSA) (Homo sapiens, UniProt P02768); test: Fluorescence emission spectrum (quenching) of HSA with carbamate pesticides; type: binding; details: for Kq / Ksv / n (number of binding sites) / Kd / Ka (binding constant): pH 7.4; for Kd: read-out: Ka (binding constant); for R (binding distance): Förster energy transfer; for fluorescence of HSA quenched by pesticide: titration of pesticide; for ΔH^0 / ΔS^0: Van't Hoff, 296-310 K
Method in brief: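 Fluorescence quenching of HSA by carbamate pesticides was measured. HSA was held at 5×10^−7 M and pesticide was titrated from (0-105)×10^−7 M. Samples were preheated for 3 minutes, excited at 280 nm with 15 nm slits, and emission was recorded from 300-500 nm. Inner-filter effects were corrected. Binding site number n came from log[(F0−F)/F]=log Ka+nlog[Q].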

[3] = target: T1, human serum albumin (HSA); test: Circular dichroism spectrum, secondary structure (α-helix content) of HSA; details: HSA 2×10^−6 M
Method in brief: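 CD spectra of HSA held at 2×10^−6 M with pesticide at (0-20)×10^−6 M, 1 mm path, after 2–5 min preheating. α-Helix content derived from mean residue ellipticity at 208 nm (585 residues).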

T1 sequence (P02768 25-609): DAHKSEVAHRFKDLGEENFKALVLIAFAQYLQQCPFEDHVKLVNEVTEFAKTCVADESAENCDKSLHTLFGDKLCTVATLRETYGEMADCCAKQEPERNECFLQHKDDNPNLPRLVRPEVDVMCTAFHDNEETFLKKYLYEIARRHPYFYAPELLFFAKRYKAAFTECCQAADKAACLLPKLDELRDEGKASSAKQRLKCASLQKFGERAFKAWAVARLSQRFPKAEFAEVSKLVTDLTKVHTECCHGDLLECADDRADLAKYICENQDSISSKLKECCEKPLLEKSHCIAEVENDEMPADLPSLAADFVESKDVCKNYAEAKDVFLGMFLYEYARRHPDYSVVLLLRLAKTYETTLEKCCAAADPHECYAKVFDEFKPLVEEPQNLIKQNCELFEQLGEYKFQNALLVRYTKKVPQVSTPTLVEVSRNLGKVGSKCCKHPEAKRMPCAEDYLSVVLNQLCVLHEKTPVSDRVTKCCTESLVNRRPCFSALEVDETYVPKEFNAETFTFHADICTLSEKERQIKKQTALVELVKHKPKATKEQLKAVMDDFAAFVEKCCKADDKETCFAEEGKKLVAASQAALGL

Row | Molecule | LD50 [1] [mg/kg] | Toxicity [1] | Ksv (37°) ([2]; 37°, modelling table) | ΔG(37°) ([2]; 37°, modelling table) | ΔG^0 ([2]; 296 K) [kcal/mol] | Kq ([2]; 296 K) | Ksv ([2]; 296 K) | n (number of binding sites) ([2]; 296 K) | ΔG^0 ([2]; 303 K) [kcal/mol] | Kq ([2]; 303 K) | Ksv ([2]; 303 K) | n (number of binding sites) ([2]; 303 K) | ΔG^0 ([2]; 310 K) [kcal/mol] | R (binding distance) ([2]; 310 K) [nm] | Kq ([2]; 310 K) | Ksv ([2]; 310 K) | n (number of binding sites) ([2]; 310 K) | fluorescence of HSA quenched by pesticide ([2]; 310 K) | ΔH^0 [2] [kcal/mol] | ΔS^0 [2] [J · mol^−1 · K^−1] | also measured
1 | CNC(=O)Oc1cc(C)cc(C)c1 [XMC, 3,5-xylyl methylcarbamate] | 245 | Moderately | 48304.67460 | −22.81 | -4.4097 | 4.145 ± 0.187 10^12 M^−1s^−1 | 4.145 ± 0.187 10^4 M^−1 | 0.734 ± 0.005 | -4.9309 | 4.362 ± 0.151 10^12 M^−1s^−1 | 4.362 ± 0.151 10^4 M^−1 | 0.779 ± 0.012 | -5.4522 | 2.033 | 4.830 ± 0.108 10^12 M^−1s^−1 | 4.830 ± 0.108 10^4 M^−1 | 0.832 ± 0.006 | quenched | 17.634 | 311.582 | Kd ([2]; 296 K): 539 µM; Kd ([2]; 303 K): 294 µM; Kd ([2]; 310 K): 139 µM; Binding distance/r ([2]; modelling table): 2.033; Number of binding sites/n ([2]; modelling table): 0.8317; α-helix contents ([3]; 5:1 (Pesticide:HSA)): 55.392%; α-helix contents ([3]; 10:1 (Pesticide:HSA)): 54.416%
2 | Trimethacarb | 178 | Moderately | 47778.50539 | −19.26 | -4.0289 | 3.043 ± 0.160 10^12 M^−1s^−1 | 3.043 ± 0.160 10^4 M^−1 | 0.694 ± 0.002 | -4.3162 | 4.204 ± 0.100 10^12 M^−1s^−1 | 4.204 ± 0.100 10^4 M^−1 | 0.696 ± 0.005 | -4.6037 | 2.954 | 4.778 ± 0.093 10^12 M^−1s^−1 | 4.778 ± 0.093 10^4 M^−1 | 0.713 ± 0.001 | quenched | 8.1233 | 171.775 | Ka (37°) ([2]; 37°, modelling table): 1782; Ka (binding constant) ([2]; 296 K): (9.546 ± 0.118) × 10^2 M^−1; Ka (binding constant) ([2]; 303 K): (1.268 ± 0.092) × 10^3 M^−1; Ka (binding constant) ([2]; 310 K): (1.782 ± 0.036) × 10^3 M^−1; Binding distance/r ([2]; modelling table): 2.954; Number of binding sites/n ([2]; modelling table): 0.713; α-helix contents ([3]; 5:1 (Pesticide:HSA)): 52.233%; α-helix contents ([3]; 10:1 (Pesticide:HSA)): 48.283%
